The target of series [1] is Protein diaphanous homolog 1/Transforming protein RhoA (Homo sapiens) (UniProt P61586+O60610). Briefly: Inhibition of human mDia1 expressed in mouse NIH/3T3 cells assessed as reduction in human full length RhoA (1 to 193 residues) interaction with mDia1 at 50 to 100 uM incubated for 1 hr by Western blot analysis based His-RhoA pull-down assay. The class given is cell-based. (In western blotting, separated proteins are transferred to a membrane and probed.)

Series [2] deals with Rho guanine nucleotide exchange factor 12 (Homo sapiens, UniProt Q9NZN5). Briefly: Inhibition of human LARG (765 to 1138 residues) RhoGEF-catalyzed guanine nucleotide-exchange reaction of human full length RhoA (1 to 193 residues) by measuring inhibition of the GDP dissociation from RhoA by Alexa 647 fluorescence dye based GDP/GTP exchange assay.
For series [3], the target named is Rho GEF 11/Transforming protein RhoA (Homo sapiens) (UniProt P61586+O15085). Briefly: Inhibition of FLAG-tagged human PDZ RhoGEF DH-PH module expressed in mouse NIH/3T3 cells assessed as reduction in human full length RhoA (1 to 193 residues) interaction with PDZ RhoGEF at 30 to 50 uM incubated for 1 hr by Western blot analysis based GST-RhoA pull-down assay. The class given is cell-based.

Series [4] concerns MCF7. The series can be described thus: Inhibition of RhoGEF in human MCF7 cells derived mammospheres assessed as inhibition of 10% calf serum-induced RhoA-GTP formation by measuring relative RhoA-GTP level incubated for 24 hrs by densitometry (reference value: 1). The class given is cell-based.
The subject of another series is NIH3T3. Briefly: Toxicity in mouse NIH/3T3 cells assessed as induction of apoptosis at 10 to 50 uM incubated for 24 hrs by Annexin-V/7-AAD staining based FACS analysis. The class given is cell-based. Particulars: nih3t3, 24 h.
In series [5] the test system is MCF7. The series can be described thus: Inhibition of mammospheres formation in human MCF7 cells at 2.5 to 15 uM in presence of 2.5 to 15 uM Rhosin/G04 incubated for 10 days. The class given is functional, cell-based.
For series [6], the target named is Rho GTPase-activating protein 35/Transforming protein RhoA (Homo sapiens) (UniProt P61586+Q9NRY4). The series can be described thus: Inhibition of human p190 expressed in mouse NIH/3T3 cells assessed as reduction in human full length RhoA (1 to 193 residues) interaction with p190 at 50 to 100 uM incubated for 1 hr by Western blot analysis based His-RhoA pull-down assay. The class given is cell-based.

Series [7] has as its system MCF7. Briefly: Inhibition of cell invasion of human MCF7 cells at 2.5 to 25 uM in presence of 2.5 to 25 uM Rhosin/G04 by Matrigel-coated transwell based assay. The class given is functional.
The target in series [8] is Rho guanine nucleotide exchange factor 12 (Homo sapiens, UniProt Q9NZN5, V1099A). Briefly: Binding affinity to recombinant human LARG (765 to 1138 residues) V1099A mutant by microscale thermophoresis analysis. In general terms: MST reads how a fluorescent partner responds to local heating, with and without ligand.
In series [9] the target is CDC42/Intersectin-1 (Homo sapiens) (UniProt P60953+Q15811). The series can be described thus: Inhibition of GST-tagged human intersectin-1 RhoGEF (1227 to 1571 residues) expressed in mouse NIH/3T3 cells assessed as reduction in human full length Cdc42 (1 to 191 residues) interaction with intersectin-1 RhoGEF at 50 to 200 uM incubated for 1 hr by Western blot analysis based pull-down assay. The class given is cell-based.

The test system of series [10] is Transforming protein RhoA (Homo sapiens), P61586 [Q63L]. The series can be described thus: Inhibition of constitutively active RhoA Q63L mutant (unknown origin) expressed in mouse NIH/3T3 cells assessed as reduction in 10% calf serum-induced focal adhesion complex formation at 50 uM by anti-vinculin antibody staining based assay. The class given is cell-based.
The species entered for series [11] is Mus musculus. The series can be described thus: Inhibition of RhoGEF in mouse NIH/3T3 cells assessed as inhibition of 10% calf serum-induced Rac1-GTP formation by measuring relative Rac1-GTP level at 50 uM incubated for 24 hrs by densitometry (reference value: 1). The class given is cell-based.
Series [12] is filed under the species Mus musculus. Briefly: Inhibition of RhoGEF in mouse NIH/3T3 cells assessed as inhibition of 10% calf serum-induced RhoA-GTP formation by measuring relative RhoA-GTP level at 15 uM in presence of 15 uM Rhosin/G04 incubated for 24 hrs by densitometry (reference value: 1). The class given is cell-based.
Series [13] has as its target T1, RhoGEF 1/Transforming protein RhoA (Homo sapiens) (UniProt P61586+Q92888). The series can be described thus: Binding affinity to human LARG (765 to 1138 residues) DH-PH module expressed in mouse NIH/3T3 cells assessed as reduction in LARG binding to human full length RhoA (1 to 193 residues) by measuring relative LARG binding level at 10 uM pull-down assay (reference value: 1 No unit). The class given is cell-based.

The species named for series [14] is Mus musculus. The series can be described thus: Inhibition of RhoGEF in mouse NIH/3T3 cells assessed as inhibition of 10% calf serum-induced RhoA-GTP formation by measuring relative RhoA-GTP level at 50 uM in presence of 50 uM Rhosin/G04 incubated for 24 hrs by densitometry (reference value: 1). The class given is cell-based.
The target of series [15] is Rho-associated protein kinase 2/Transforming protein RhoA (Homo sapiens) (UniProt O75116+P61586). The series can be described thus: Inhibition of human ROCK2 expressed in mouse NIH/3T3 cells assessed as reduction in human full length RhoA (1 to 193 residues) interaction with ROCK2 at 50 to 200 uM incubated for 1 hr by Western blot analysis based His-RhoA pull-down assay. The class given is cell-based.

Series [16] deals with Transforming protein RhoA (Homo sapiens), P61586 [Q63L]. Briefly: Inhibition of constitutively active RhoA Q63L mutant (unknown origin) expressed in mouse NIH/3T3 cells assessed as reduction in 10% calf serum-induced actin stress fiber formation at 50 uM by rhodamine-phalloidin staining based assay. The class given is cell-based.
Series [17] is filed under the species Mus musculus. Briefly: Inhibition of RhoGEF in mouse NIH/3T3 cells assessed as inhibition of 10% calf serum-induced RhoA-GTP formation by measuring reduction in RhoA-GTP level at 30 uM incubated for 24 hrs by densitometry relative to control. The class given is cell-based.
Series [18] has as its target T1, RhoGEF 1/Transforming protein RhoA (Homo sapiens). The series can be described thus: Binding affinity to human LARG (765 to 1138 residues) DH-PH module expressed in mouse NIH/3T3 cells assessed as reduction in LARG binding to human full length RhoA (1 to 193 residues) by measuring relative LARG binding level at 2.5 uM in presence of 2.5 uM Rhosin/G04 pull-down assay (reference value: 1 No unit). The class given is cell-based.

The species named for series [19] is Mus musculus. Briefly: Inhibition of RhoGEF in mouse NIH/3T3 cells assessed as inhibition of 10% calf serum-induced RhoA-GTP formation by measuring reduction in RhoA-GTP level at 5 uM in presence of 5 uM Rhosin/G04 incubated for 24 hrs by densitometry relative to control. The class given is cell-based.
Series [20] concerns the target T1, RhoGEF 1/Transforming protein RhoA (Homo sapiens). The series can be described thus: Binding affinity to human LARG (765 to 1138 residues) DH-PH module expressed in mouse NIH/3T3 cells assessed as reduction in LARG binding to human full length RhoA (1 to 193 residues) by measuring relative LARG binding level at 50 uM pull-down assay (reference value: 1 No unit). The class given is cell-based.

pKd: −log10 of the molar value. Calls of active or inactive are those of the source. No cut-off for these calls is given here.

Chain of Transforming protein RhoA (Homo sapiens), P61586 [Q63L] (P61586 whole entry Q63L): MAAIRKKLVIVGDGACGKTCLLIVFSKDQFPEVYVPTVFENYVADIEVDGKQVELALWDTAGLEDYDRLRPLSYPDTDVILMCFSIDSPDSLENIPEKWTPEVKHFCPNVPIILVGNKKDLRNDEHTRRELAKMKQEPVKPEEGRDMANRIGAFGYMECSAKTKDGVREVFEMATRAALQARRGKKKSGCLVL
Chain of CDC42/Intersectin-1 (Homo sapiens) (P60953 whole entry, looked up, the tested form may be a part): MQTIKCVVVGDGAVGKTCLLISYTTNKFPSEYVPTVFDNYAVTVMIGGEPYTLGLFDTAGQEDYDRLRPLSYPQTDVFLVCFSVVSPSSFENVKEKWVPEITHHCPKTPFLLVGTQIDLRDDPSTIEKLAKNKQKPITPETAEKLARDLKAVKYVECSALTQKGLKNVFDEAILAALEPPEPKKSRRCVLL
Chain of CDC42/Intersectin-1 (Homo sapiens) (Q15811 whole entry, looked up, the tested form may be a part): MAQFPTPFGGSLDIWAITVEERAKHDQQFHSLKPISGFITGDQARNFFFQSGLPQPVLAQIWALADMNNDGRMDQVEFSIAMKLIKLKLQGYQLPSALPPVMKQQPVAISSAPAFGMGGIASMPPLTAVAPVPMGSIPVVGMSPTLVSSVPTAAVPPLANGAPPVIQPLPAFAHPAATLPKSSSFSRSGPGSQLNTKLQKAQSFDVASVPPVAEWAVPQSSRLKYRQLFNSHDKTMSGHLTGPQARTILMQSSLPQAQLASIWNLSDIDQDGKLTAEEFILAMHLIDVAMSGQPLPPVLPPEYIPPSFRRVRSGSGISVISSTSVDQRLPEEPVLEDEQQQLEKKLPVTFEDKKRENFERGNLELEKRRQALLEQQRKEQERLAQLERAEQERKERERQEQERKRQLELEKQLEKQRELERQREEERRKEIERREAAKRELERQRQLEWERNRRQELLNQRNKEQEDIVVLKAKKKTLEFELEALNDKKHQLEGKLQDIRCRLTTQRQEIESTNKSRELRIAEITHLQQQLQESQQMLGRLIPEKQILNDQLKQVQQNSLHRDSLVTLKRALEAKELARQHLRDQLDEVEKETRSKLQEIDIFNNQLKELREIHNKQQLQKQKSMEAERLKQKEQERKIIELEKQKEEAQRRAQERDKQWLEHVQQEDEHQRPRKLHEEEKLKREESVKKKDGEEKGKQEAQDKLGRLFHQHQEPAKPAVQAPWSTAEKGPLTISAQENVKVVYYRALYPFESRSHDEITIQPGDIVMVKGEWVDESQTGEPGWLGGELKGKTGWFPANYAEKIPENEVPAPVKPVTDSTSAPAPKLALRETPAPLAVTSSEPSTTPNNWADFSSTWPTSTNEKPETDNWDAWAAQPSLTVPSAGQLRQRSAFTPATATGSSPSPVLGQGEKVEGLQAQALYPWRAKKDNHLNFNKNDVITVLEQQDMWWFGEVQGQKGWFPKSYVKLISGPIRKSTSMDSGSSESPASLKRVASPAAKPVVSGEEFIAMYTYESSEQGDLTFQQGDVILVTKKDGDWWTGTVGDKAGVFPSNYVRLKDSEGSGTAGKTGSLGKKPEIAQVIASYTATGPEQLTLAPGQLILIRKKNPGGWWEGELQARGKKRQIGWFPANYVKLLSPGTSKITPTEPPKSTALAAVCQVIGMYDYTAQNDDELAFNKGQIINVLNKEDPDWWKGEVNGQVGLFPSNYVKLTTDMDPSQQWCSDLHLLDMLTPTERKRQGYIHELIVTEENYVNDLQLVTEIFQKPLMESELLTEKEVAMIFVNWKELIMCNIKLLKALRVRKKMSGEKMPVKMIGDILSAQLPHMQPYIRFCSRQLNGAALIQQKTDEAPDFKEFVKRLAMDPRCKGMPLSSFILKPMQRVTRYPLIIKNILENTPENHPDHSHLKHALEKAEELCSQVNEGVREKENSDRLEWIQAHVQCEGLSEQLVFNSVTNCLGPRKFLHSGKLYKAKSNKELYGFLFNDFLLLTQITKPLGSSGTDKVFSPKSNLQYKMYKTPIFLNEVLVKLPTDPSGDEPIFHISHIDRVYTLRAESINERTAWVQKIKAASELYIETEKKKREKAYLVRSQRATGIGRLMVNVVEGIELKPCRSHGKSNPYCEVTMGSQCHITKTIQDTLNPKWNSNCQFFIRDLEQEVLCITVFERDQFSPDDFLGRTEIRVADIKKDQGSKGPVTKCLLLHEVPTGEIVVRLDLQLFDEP
Chain of Rho guanine nucleotide exchange factor 12 (Homo sapiens, UniProt Q9NZN5, V1099A) (Q9NZN5 2-1544 V1099A limits assumed): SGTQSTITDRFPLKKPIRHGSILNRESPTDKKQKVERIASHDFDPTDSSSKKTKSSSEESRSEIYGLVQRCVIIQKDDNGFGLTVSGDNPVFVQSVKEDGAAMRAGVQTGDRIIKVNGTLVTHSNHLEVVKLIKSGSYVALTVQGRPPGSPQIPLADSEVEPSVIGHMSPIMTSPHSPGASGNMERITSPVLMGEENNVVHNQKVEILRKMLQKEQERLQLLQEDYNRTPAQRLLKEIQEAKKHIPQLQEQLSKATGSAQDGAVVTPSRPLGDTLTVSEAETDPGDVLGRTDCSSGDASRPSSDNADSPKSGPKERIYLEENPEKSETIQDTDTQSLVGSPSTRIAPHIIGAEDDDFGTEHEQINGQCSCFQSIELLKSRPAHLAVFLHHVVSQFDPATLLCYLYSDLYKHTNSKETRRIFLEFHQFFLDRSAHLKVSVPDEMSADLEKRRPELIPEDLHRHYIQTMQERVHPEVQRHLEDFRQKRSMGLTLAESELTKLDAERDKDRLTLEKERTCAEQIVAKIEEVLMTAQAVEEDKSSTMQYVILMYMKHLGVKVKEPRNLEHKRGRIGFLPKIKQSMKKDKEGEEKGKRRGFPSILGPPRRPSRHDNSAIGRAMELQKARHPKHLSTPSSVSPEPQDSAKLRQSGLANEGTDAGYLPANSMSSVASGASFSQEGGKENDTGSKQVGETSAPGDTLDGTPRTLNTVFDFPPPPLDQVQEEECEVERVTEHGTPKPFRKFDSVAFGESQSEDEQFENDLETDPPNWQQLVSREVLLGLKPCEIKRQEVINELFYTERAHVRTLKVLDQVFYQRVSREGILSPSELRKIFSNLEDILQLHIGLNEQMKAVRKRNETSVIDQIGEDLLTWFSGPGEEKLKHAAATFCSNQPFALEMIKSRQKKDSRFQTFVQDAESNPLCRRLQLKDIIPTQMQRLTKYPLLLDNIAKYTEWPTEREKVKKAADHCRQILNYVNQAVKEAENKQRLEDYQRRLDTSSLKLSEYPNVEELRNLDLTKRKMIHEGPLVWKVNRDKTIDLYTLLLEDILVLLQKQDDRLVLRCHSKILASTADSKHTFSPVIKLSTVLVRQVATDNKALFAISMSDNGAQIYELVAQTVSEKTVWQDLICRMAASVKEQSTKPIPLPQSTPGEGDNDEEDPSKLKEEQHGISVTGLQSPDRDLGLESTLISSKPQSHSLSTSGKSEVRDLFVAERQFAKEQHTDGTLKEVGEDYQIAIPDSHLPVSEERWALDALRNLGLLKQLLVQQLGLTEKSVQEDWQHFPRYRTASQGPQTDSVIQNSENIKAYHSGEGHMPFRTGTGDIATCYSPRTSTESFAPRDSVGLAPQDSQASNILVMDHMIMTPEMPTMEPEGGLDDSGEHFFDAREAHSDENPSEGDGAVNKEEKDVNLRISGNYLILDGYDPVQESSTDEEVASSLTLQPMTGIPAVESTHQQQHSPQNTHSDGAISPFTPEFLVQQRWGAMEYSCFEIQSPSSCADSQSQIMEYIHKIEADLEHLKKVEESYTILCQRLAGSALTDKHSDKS

On to `Cc1cccc(COc2cccc(/C=C3\C(=O)NN(c4ccccc4)C3=O)c2)c1`, for which the inhibition result in [1], in series [6], in series [9], in series [10], in [15] and in series [16] was “inactive” in each case. In addition, the inhibition result in [2] is “Dose-dependent effect”; in the series with MCF7 [4], “Dose-dependent effect”; in the series filed under Mus musculus [17] it was 80%; in the series listed under Mus musculus [19] it was 80%. Further, the inhibition result (in series [3]; with MCF7 [5]; in the series on MCF7 [7]) was “Active” in each case. For the same compound, in the series on NIH3T3, the Activity result is reported as “Non-Toxic”. The pKd in series [8] is 7.10. Besides, the fold change (FC) is 0.93 in the series filed under Mus musculus [11]; 0.25 in the series listed under Mus musculus [12]; 0.61 in series [13]; 0 in the series filed under Mus musculus [14]; 0.71 in series [18]; 0.19 in series [20].

One may read the inhibition as the share of the control response that was lost under treatment. The pKd is −log10 of the Kd, conventionally taken in molar units.

Values taken from ChEMBL document CHEMBL4419173, “Small-molecule inhibitors targeting g-protein-coupled rho guanine nucleotide exchange factors” (2014).
